# Assay results published in US11793824B2, “Administration of nicotinamide mononucleotide in the treatment of disease” (Washington University, priority 2013, dated 2023).
# “Also recorded” adds a separate entry of the source.
# Columns and labels:
# [1] = Electroretinography (ERG) of aged mice; assay type: in vivo, mouse
# Procedure: A 12 month-long NMN administration study using wild-type mice under a regular chow-fed condition was conducted. NMN was administered through drinking water, and two doses of NMN, 100 and 300 mg/kg body weight/day, were tested. […] To assess beneficial and possible adverse effects of NMN, a variety of physiological parameters were periodically monitored, including body weight, body temperature, food and water intake, fed and fasted blood glucose levels, fed and fasted plasma lipid panels, and glucose and insulin tolerance, in NMN-administered and control mice. Blood chemistry, blood cell counts, urine strip test, and other physiological tests including physical activity test were also checked.
# In the long-term NMN administration study (See Methods; Administration of NMN through Drinking Water and Determination of NMN Stability and Toxicity), retinal function was evaluated by fundus biomicroscopy and electroretinography (ERG). FIG. 11 illustrates fundus biomicroscopy images from control and NMN-administered mice. For each group, five mice were examined, and two representative images are shown.
# FIG. 12A-C illustrates electroretinograms from control and NMN-administered mice. Amplitudes of scotopic a and b (FIG. 12A, FIG. 12B) and photopic b (FIG. 12C) waves over each stimulus range are shown. […] The data were analyzed with the two-way repeated ANOVA. […]
# NSPCs = assay: NSPC pool in the dentate gyrus after long-term NMN in drinking water; assay type: in vivo, mouse
# Procedure: All tissue sections were and cells incubated in blocking/permeabilization solution containing 10% normal goat serum, 1% BSA, and 0.3% Triton-X in PBS for 45 to 60 min prior to 24 or 48 h of incubation with primary antibodies in 5% normal goat serum and 0.1% Triton-X in PBS at 4° C. at the concentrations listed below. […], Alexa488, or Cy3 conjugated-secondary antibodies diluted in 2% normal goat serum, 1% BSA, and 0.1% Triton-X in PBS were added for 2 h at room temperature. Nuclei were stained with 4,6-diamidino-2-phenylindole (Sigma) for 10 min at room temperature.
# Cells were harvested by fixation with 4% paraformaldehyde in PBS (15 min). Mice were anesthetized by i.p. injection of ketamine and xylazine, and perfused transcardially through left ventricle with cold 0.1 M phosphate buffer at pH 7.4 followed by a phosphate-buffered solution of 4% paraformaldehyde (PFA). Brains were postfixed with 4% PFA overnight and placed into 15% sucrose followed by 30% sucrose, frozen, and stored at −80° C. until use. Coronal sections (30 μm) were made by cryostat in a 1 in 8 series and stored at −30° C. in cryoprotectant until use. To remove any endogenous peroxidase activity, all sections were incubated with 3% H2O2 for 10 min. […]
# For tissue sections, high-magnification (20×, 0.8DICII or 40× oil 1.3DICII) microscopic imaging was performed using a Zeiss Axioimage.Z1. […] Quantification was performed blinded to genotype on 3-8 tissue sections per animal. Cell densities were estimated by the number of immunoreactive cells divided by the area of the structure, measured with ImageJ. […] Quantification was performed blinded to genotype on 2 to 3 fields of view per sample and treatment, from 3 to 9 independent samples.
# The inventors hypothesized that systemic administration of NMN may be able to correct age-associated defects in NSPC functionality. […] Quantification of Ki67+ (H) and Dcx+ (I) cells in the DG per unit area of the DG (n=5). […]
# [2] = NMN in drinking water from 6 to 18 months of age
smiles,measurement,setting,value
"NC(=O)c1ccc[n+]([C@@H]2O[C@H](COP(=O)([O-])O)[C@@H](O)[C@H]2O)c1 [NMN, nicotinamide mononucleotide]",scotopic a wave amplitudes,"[1]; at 0 and 5 db (300 mg/kg), 5 db (100 mg/kg), aged mice",significantly higher amplitudes
same,photopic b wave,"[1]; entire range of stimulus, 100 and 300 mg/kg groups",trend of improvement
same,Type 1 (radial Nestin+) NSPC population with age,NSPCs; 300 mg/kg body weight in drinking water from 6 to 18 months of age,improved maintenance; also recorded: able to maintain the NSPC pool
same,population of newborn neurons (Dcx+) in the DG,NSPCs; [2],trended to increase
same,population of proliferating cells (Ki67+) in the DG,NSPCs; [2],remained similar to controls
